Patent US9663486B2, “Selectively substituted quinoline compounds” (EISAI R&D MANAGEMENT CO., LTD., priority 2013, dated 2017)
“Also recorded” adds a separate entry of the source.

How the values were obtained:
[1] = system: auto-antibody titers (anti-dsDNA, anti-histone, anti-Sm/RNP, anti-RiboP); assay: DBA/1 pristane lupus model, auto-antibody titers by ELISA; format: in vivo, mouse; details: DBA/1 mice, once-a-day oral dosing
Experimental: (§1) FIG. 1A through FIG. 1D show results of treatment with ER-888840 (5-((3R,5S)-3-amino-5-methylpiperidin-1-yl)quinoline-8-carbonitrile) in the DBA/1 pristane model. Figure Legend: Female DBA/1 mice at 10 weeks of age were given an intraperitoneal injection of 0.5 ml pristane or PBS. At 18 weeks of age animals were bled for pre-dosing baseline auto-antibody titers. Once-a-day oral dosing with Vehicle (Veh; 0.5% methyl-cellulose) or 11 mg/kg, 33 mg/kg, or 100 mg/kg of ER-888840 was begun at 18 weeks of age, 8 weeks after pristane injection and continued for 12 weeks of treatment. At the end of the experiment plasma samples were taken and anti-dsDNA and anti-histone (FIG. 1A) and anti-Sm/RNP and anti-RiboP (FIG. 1B) titers were determined by ELISA. (FIG. 1C) The expression of IFN-regulated genes in whole blood was measured by a qPCR panel after 8 weeks of treatment. […] (FIG. 1D) The interferon scores of individual mice were calculated (see Pharmacology Materials and Methods section for details regarding IFN score calculation) and groups compared using the Mann-Whitney t test.
(§2) FIG. 2A through 2E show results of treatment with ER-888840 in the DBA/1 pristane model. […] At the end of the experiment plasma was taken and anti-dsDNA (FIG. 2A), anti-RiboP (FIG. 2B), anti-histone (FIG. 2C) and anti-Sm/RNP (FIG. 2D) titers were determined by ELISA. […]

IFN-regulated genes = assay: DBA/1 pristane lupus model, IFN-regulated gene expression in whole blood (qPCR, IFN score); format: in vivo, mouse; details: Pristane-induced diseased animals, DBA/1 mice, once-a-day oral dosing
Experimental: as §1, §2

`C[C@H]1C[C@@H](N)CN(c2ccc(C#N)c3ncccc23)C1` [ER-888840, 5-((3R,5S)-3-amino-5-methylpiperidin-1-yl)quinoline-8-carbonitrile] was tested, and the “effect on auto-antibody specificities” value [1] was “suppressed multiple auto-antibody specificities; also recorded: limited the production of several autoantibody specificities” and the “effect on interferon-regulated gene expression (interferon score)” value (IFN-regulated genes) was “dose-dependently significantly reduced interferon-regulated gene expression; also recorded: suppressed the upregulation of interferon-driven genes”.
